Test results: patent US8895753B2, “S1P receptor modulating agent” (Meiji Seika Pharma Co., Ltd., priority 2011, dated 2014)

Experiments:
enterobacterium = assay: Stability against enterobacterium (feces / cecum homogenates); type: in vitro ADME; conditions: cynomolgus monkey feces and rat cecum homogenates, 3 and 30 μM, 37° C., 24 hours; all conditions
Protocol: A culture medium was added to fresh feces of a cynomolgus monkey and rat cecum to prepare homogenates. To a homogenate was added the compound of the Example 2, or 1-{4-[5-(4-isopropoxyphenyl)-1,2,4-oxadiazol-3-yl]benzyl}azetidine-3-carboxylic acid (the compound of the Example 29 of Non-Patent Document 5) adjusted at a concentration of 3 and 30 μM, and the mixture was anaerobically cultured at 37° C. for 24 hours. After the cultivation, the concentration of the residual compound in the culture medium was measured on LC-MS.

electrocardiogram = assay: Evaluation of electrocardiogram in a rat (under anesthesia); type: in vivo
Protocol: Under anesthesia, femoral artery was cannulated in a 7-11-week-old male SD rat (Charles River Laboratories Japan Inc.) that had been reared for more than one week, connected to a polygraph (NIHON KODEN) via a pressure transducer. Without consciousness, a vehicle (dimethylsulfoxide) or a test compound was intravenously administered. After the administration, blood pressure, the heart rate, and electrocardiogram were monitored for about 10 minutes.

Human S1P1 receptor [1] = molecular target: T1, Human S1P1 receptor (Homo sapiens, UniProt P21453); assay: Agonist activity at an S1P1 receptor ([35S]-GTPγS exchange reaction, membrane fractions); type: biochemical; conditions: read-out: EC50, agonist activity at S1P1 receptor (GTP exchange reaction)
Protocol: (§1) By using membrane fractions prepared from a human S1P1 receptor expressing cells (Multispan Ltd.), the agonist activity of each test compound was measured by [^35S]-GTPγS exchange reaction in accordance with a standard procedure (Methods in Molecular Biology, Vol. 552, p 143-151 (2009)), and EC50 (nM) of each test compound was computed.

Human S1P3 receptor = Human S1P3 receptor (Homo sapiens, UniProt Q99500); assay: Agonist activity at an S1P3 receptor ([35S]-GTPγS exchange reaction at 1000 nM); type: biochemical; conditions: read-out: percent of the maximal agonist activity at S1P3 receptor
Protocol: as §1
By using membrane fractions prepared from Human S1P3 receptor expressing cells (Multispan Inc.), the agonist activity of the compound in the present invention was measured by a [^35S]-GTPγS exchange reaction at 1000 nM by the similar method of the Experimental Example 2.

Human S1P4 receptor = molecular target: T2, Human S1P4 receptor (Homo sapiens, UniProt O95977); assay: Agonist activity at an S1P4 receptor (calcium influx); type: cell-based; conditions: at 1000 nM; read-out: activity at S1P4 receptor (elevation of intracellular calcium)
T2 sequence (O95977 1-384): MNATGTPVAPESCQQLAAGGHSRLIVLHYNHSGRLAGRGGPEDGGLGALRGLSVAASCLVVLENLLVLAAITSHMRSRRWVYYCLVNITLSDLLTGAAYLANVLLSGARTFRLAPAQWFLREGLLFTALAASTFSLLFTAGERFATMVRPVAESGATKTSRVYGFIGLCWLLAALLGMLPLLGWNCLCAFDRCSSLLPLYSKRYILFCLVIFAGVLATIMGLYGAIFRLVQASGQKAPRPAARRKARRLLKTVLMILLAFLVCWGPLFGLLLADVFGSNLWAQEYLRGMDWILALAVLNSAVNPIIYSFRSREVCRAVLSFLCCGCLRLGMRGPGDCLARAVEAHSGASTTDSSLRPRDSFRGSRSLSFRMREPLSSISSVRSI
Protocol: By using Human S1P4 receptor expressing cells (Multispan Inc. CG1052-1), the elevation of intracellular calcium concentration via agonist activity by the addition of 1000 nM was measured by Fret method (fluorescence resonance energy transfer).

Human S1P1 receptor [2] = molecular target: T1, Human S1P1 receptor; assay: Agonist activity at an S1P1 receptor (reporter assay, EDG1-bla/U2OS cells); type: cell-based; parameters: host or cells: U2OS (EDG1-bla/U2OS); conditions: S1P maximum response = 100%
Protocol: Human S1P1 receptor gene recombinant EDG1-bla/U2OS cells (Life Technologies Japan Ltd.) were plated in a 96-well half-sized clear bottom black plate at a density of 10000 cells/32 μL/well, and then the plate was incubated at 37° C. in a 5% CO2 incubator for 48 hours. A culture medium containing each test compound prepared as a 5× concentrate was added at 8 μL/well, and the plate was incubated at 37° C. in a 5% CO2 incubator for 5 hours. The substrate (LiveBLAzer™-FRET B/G substrate (CCF4-AM), Life Technologies Japan Ltd.) prepared as a 6× concentrate was added at 8 μL into each well, and the plate was incubated at room temperature for 2 hours in the dark. The fluorescence intensity of each well was detected using a bottom-reading fluorescence microplate reader (EnVision: ParkinElmer) at one excitation wavelength and 2 wavelengths for fluorescence emission (Ex409 nm, Em460 nm, Em530 nm). The intensity ratio of fluorescence at 460 nm/530 nm was calculated for each well. The maximum response ratio confirmed from the dose response of SIP was expressed as 100%. The concentration of a test compound required to stimulate 50% of its maximal activation was computed as EC50 (nM).

blood lymphocytic cells = assay: Suppressive effect on circulating lymphocytic cells in a rat; type: in vivo; conditions: 6 hours after administration
Protocol: Under anesthesia, a femoral artery was cannulated in a 7-11-week old male SD rat (Charles River Laboratories Japan Inc.) that had been reared for more than one week. A vehicle (in case of intravascular administration, 10% PEG300-0.01 M KOH saline was used, and in case of oral administration, 0.5% hydroxymethyl cellulose solution was used) or a test compound was administered intravascularly or by gavage administration. Right before the administration or 2, 4, 6 hours after the administration, the number of blood lymphocytic cells was counted by using an automated hematology analyzer XT-1800i or XT-2000i (Sysmex). The count of lymphocytic cells right before the administration was regarded as 100%, and the dose of the test compound that reduced blood lymphocytic cells by 50% of vehicle-treated group at the point of 6 hours after the administration was calculated as ED50 (mg/kg body weight).

heart rate = assay: Evaluation of the heart rate in a rat (under consciousness); type: in vivo; conditions: vascular administration
Protocol: Under anesthesia, femoral artery was cannulated in a 7-11-week old male SD rat (Charles River Laboratories Japan Inc.) that had been reared for more than one week. Arterial cannula was connected to a pressure transducer, and under consciousness changes in the heart rate were monitored with a polygraph (Nihon Kohden) up to 4 hours after the vascular administration of the vehicle (10% PEG300-0.01M KOH saline) or the test compounds. The dose that lowered the heart rate by 20% was computed as TD20 (mg/kg body weight).

[3] = system: electrocardiogram / monophasic action potential (MAP); assay: Evaluation of cardiovascular system in a guinea pig; type: in vivo; conditions: anesthetized guinea pig, 0.1 mg/kg body weight, infusion
Excerpt: Under anesthesia with 0.5 to 1% of halothane, to a male Hartley guinea-pig (Japan SLC, Inc.) that had been reared for more than one week, a catheter for administration of a drug solution was placed into the left jugular vein, a monophasic action potential (MAP) measurement/pacing catheter was placed into the endothelial lining of the right ventricle, a catheter for measuring blood pressure was placed into the left carotid artery, and the measurement of body surface electrocardiogram (lead II) was conducted. The drug solution was infused for 10 minutes and the measurement was carried out over 60 minutes. Also, 5, 10, 15, 20, 30, 45 and 60 minutes after the administration of the drug solution, pacing was performed (200, 240, 300 bpm), and monophasic action potential (MAP) was measured.

[4] = anesthetized rat, intravenous 0.1 mg/kg body weight

T1 sequence (P21453 whole entry): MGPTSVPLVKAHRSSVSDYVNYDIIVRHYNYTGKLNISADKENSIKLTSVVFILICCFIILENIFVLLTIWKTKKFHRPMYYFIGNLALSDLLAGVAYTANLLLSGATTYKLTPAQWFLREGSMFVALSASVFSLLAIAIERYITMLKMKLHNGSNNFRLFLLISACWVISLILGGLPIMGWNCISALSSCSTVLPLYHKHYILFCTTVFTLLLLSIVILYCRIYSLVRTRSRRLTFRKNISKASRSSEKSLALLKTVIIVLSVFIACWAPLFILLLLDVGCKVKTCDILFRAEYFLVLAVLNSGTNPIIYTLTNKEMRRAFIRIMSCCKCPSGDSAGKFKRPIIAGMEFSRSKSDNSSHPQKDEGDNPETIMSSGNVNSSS
Chain of Human S1P3 receptor (Q99500 whole entry): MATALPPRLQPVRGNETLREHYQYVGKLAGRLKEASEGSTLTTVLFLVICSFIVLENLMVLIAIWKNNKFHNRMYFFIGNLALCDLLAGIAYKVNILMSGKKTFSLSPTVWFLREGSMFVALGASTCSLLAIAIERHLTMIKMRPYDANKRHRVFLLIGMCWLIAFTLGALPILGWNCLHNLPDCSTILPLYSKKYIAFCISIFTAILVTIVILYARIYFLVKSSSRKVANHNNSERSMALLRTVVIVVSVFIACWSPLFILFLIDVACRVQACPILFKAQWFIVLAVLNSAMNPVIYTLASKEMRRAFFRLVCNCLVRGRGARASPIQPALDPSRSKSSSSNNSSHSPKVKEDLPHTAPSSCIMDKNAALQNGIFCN

| SMILES | EC50 (Human S1P1 receptor [1]) [nM] | Emax at 1 µM (Human S1P3 receptor) [%] | activation at 1 µM (Human S1P4 receptor) [%] | EC50 (Human S1P1 receptor [2]) [nM] | other results |
| --- | --- | --- | --- | --- | --- |
| CC(C)Oc1ccc(-c2nc(-c3ccc(CN4CC(C(=O)O)C4)cc3)no2)cc1 [1-{4-[5-(4-isopropoxyphenyl)-1,2,4-oxadiazol-3-yl]benzyl}azetidine-3-carboxylic acid] | – | – | – | – | residual compound after anaerobic culture with homogenate (enterobacterium): ≤ 2%; cardiac arrest (cases) (electrocardiogram; [4]): 1 out of 3; duration of continuous cardiac arrhythmia (AV block) (electrocardiogram; [4]): 170 s |
| CC(C)Oc1ccc(-c2cnc(-c3ccc(CN4CC(C(=O)O)C4)cc3)s2)cc1F [Example 53, 1-(4-(5-(3-fluoro-4-isopropoxyphenyl)thiazol-2-yl)benzyl)azetidine-3-carboxylic acid] | ≤ 500 | 20 to 50 | < 20 | ≤ 10 | – |
| CC(C)Oc1ccc(-c2cnc(-c3ccc(CN4CC(C(=O)O)C4)cc3)s2)c(C(F)(F)F)c1 [Example 55, 1-(4-(5-(4-isopropoxy-2-(trifluoromethyl)phenyl)thiazol-2-yl)benzyl)azetidine-3-carboxylic acid] | ≤ 500 | < 20 | < 20 | ≤ 10 | – |
| CC(C)Oc1ccc(-c2cnc(-c3ccc(CN4CC(C(=O)O)C4)cc3)s2)cc1C(F)(F)F [Example 56, 1-(4-(5-(4-isopropoxy-3-(trifluoromethyl)phenyl)thiazol-2-yl)benzyl)azetidine-3-carboxylic acid] | ≤ 100 | 20 to 50 | < 20 | ≤ 1 | – |
| CCCCCCCCc1ccc(CCC(N)(CO)CO)cc1 [Fingolimod, reference compound] | – | – | – | – | ED50, dose reducing blood lymphocytic cells by 50% (blood lymphocytic cells; gavage administration): 0.2 mg/kg body weight; ED50, dose reducing blood lymphocytic cells by 50% (blood lymphocytic cells; vascular administration): 0.06 mg/kg body weight; TD20, dose that lowered the heart rate by 20% (heart rate; conscious rat): 0.3 mg/kg body weight; TD20/ED50 ratio (heart rate; rat): 5; MAP90 prolongation effect [3]: recognized; prolonged QT [3]: recognized |
| CCCCCCCCc1ccc(CCC(N)(CO)COP(=O)(O)O)cc1 (stereo not drawn) [phosphorylated form of Fingolimod] | – | – | – | – | duration of continuous cardiac arrhythmia (AV block) (electrocardiogram; rat, in vivo, iv, 0.1 mg/kg): 120 s |

Second part, led by results:

| EC50 (Human S1P1 receptor [1]) [nM] | Emax at 1 µM (Human S1P3 receptor) [%] | activation at 1 µM (Human S1P4 receptor) [%] | EC50 (Human S1P1 receptor [2]) [nM] | SMILES | other results |
| --- | --- | --- | --- | --- | --- |
| ≤ 50 | < 20 | < 20 | ≤ 1 | CC(C)Oc1ccc(-c2cnc(-c3ccc(CN4CC(C(=O)O)C4)c(F)c3)s2)cc1Cl [Example 57, 1-(4-(5-(3-chloro-4-isopropoxyphenyl)thiazol-2-yl)-2-fluorobenzyl)azetidine-3-carboxylic acid] | – |
| ≤ 50 | < 20 | < 20 | ≤ 1 | CC(C)Oc1ccc(-c2cnc(-c3ccc(CN4CC(C(=O)O)C4)c(C(F)(F)F)c3)s2)cc1Cl [Example 58, 1-(4-(5-(3-chloro-4-isopropoxyphenyl)thiazol-2-yl)-2-(trifluoromethyl)benzyl)azetidine-3-carboxylic acid] | – |
| ≤ 50 | < 20 | < 20 | ≤ 1 | CC(C)Cc1ccc(-c2cnc(-c3ccc(CN4CC(C(=O)O)C4)cc3F)s2)cc1C#N [Example 59, 1-(4-(5-(3-cyano-4-isobutylphenyl)thiazol-2-yl)-3-fluorobenzyl)azetidine-3-carboxylic acid] | – |
| ≤ 10 | 20 to 50 | < 20 | ≤ 1 | CC(C)Oc1ccc(-c2cnc(-c3ccc(CN4CC(C(=O)O)C4)cc3Cl)s2)cc1Cl [Example 60, 1-(3-chloro-4-(5-(3-chloro-4-isopropoxyphenyl)thiazol-2-yl)benzyl)azetidine-3-carboxylic acid] | – |
| ≤ 10 | < 20 | < 20 | ≤ 100 | COc1cc(CN2CC(C(=O)O)C2)ccc1-c1ncc(-c2ccc(OC(C)C)c(Cl)c2)s1 [Example 61, 1-(4-(5-(3-chloro-4-isopropoxyphenyl)thiazol-2-yl)-3-methoxybenzyl)azetidine-3-carboxylic acid] | – |
| ≤ 10 | 20 to 50 | < 20 | ≤ 1 | Cc1cc(-c2ncc(-c3ccc(OC(C)C)c(Cl)c3)s2)ccc1CN1CC(C(=O)O)C1 [Example 62, 1-(4-(5-(3-chloro-4-isopropoxyphenyl)thiazol-2-yl)-2-methylbenzyl)azetidine-3-carboxylic acid] | – |
| ≤ 50 | < 20 | < 20 | ≤ 1 | CC(C)Oc1ccc(-c2cnc(-c3ccc(CN4CC(C(=O)O)C4)c(Cl)c3)s2)cc1Cl [Example 63, 1-(2-chloro-4-(5-(3-chloro-4-isopropoxyphenyl)thiazol-2-yl)benzyl)azetidine-3-carboxylic acid] | – |
| ≤ 10 | < 20 | < 20 | ≤ 10 | COc1cc(-c2ncc(-c3ccc(OC(C)C)c(Cl)c3)s2)ccc1CN1CC(C(=O)O)C1 [Example 64, 1-(4-(5-(3-chloro-4-isopropoxyphenyl)thiazol-2-yl)-2-methoxybenzyl)azetidine-3-carboxylic acid] | – |
